Measurements from PubChem BioAssay (NCI).
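Five concentrations, 48 hours, 96-well plates. TGI: total growth inhibition.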

Columns and labels:
Assay in all cases: DTP human tumour cell line panel, 48 h
[1] = system: SW-620 colon
[2] = system: HS 578T breast
[3] = system: BT-549 breast
[4] = system: NCI-H460 lung
[5] = system: HOP-62 NSCLC
[6] = system: MDA-MB-435
[7] = system: COLO 205 colon
[8] = system: HCT-116 colon
[9] = system: MALME-3M melanoma
[10] = system: SR leukemia
[11] = system: MDA-N
[12] = system: HT29 colon
[13] = system: K-562 leukemia
[14] = system: SK-MEL-28 melanoma
[15] = system: PC-3 prostate
[16] = system: OVCAR-4 ovarian
[17] = system: NCI-H226 lung
[18] = system: A549 NSCLC
[19] = system: 786-0 renal
[20] = system: NCI-H522 lung
[21] = system: IGROV1 ovarian
[22] = system: UACC-257 melanoma
[23] = system: SF-268 CNS
[24] = system: ACHN renal
[25] = system: LOX IMVI melanoma
[26] = system: TK-10 renal
[27] = system: RXF 393 renal
[28] = system: SN12C renal
[29] = system: SNB-19 CNS
[30] = system: OVCAR-8 ovarian
[31] = system: OVCAR-3 ovarian
[32] = system: SF-539 CNS
[33] = system: SK-MEL-5 melanoma
[34] = system: MDA-MB-231 breast
[35] = system: HOP-92 NSCLC
[36] = system: DU-145 prostate
[37] = system: HL-60(TB) leukemia
[38] = system: SK-OV-3 ovarian
[39] = system: T-47D breast
[40] = system: NCI-H23 lung
[41] = system: RPMI-8226 leukemia
[42] = system: CAKI-1 renal
[43] = system: HCT-15 colon
[44] = system: NCI/ADR-RES ovarian
[45] = system: MOLT-4 leukemia
[46] = system: OVCAR-5 ovarian
[47] = system: CCRF-CEM leukemia
[48] = system: SNB-75 CNS
[49] = system: UO-31 renal
[50] = system: SF-295 CNS
[51] = system: M14 melanoma
[52] = system: SK-MEL-2 melanoma
[53] = system: HCC-2998 colon
[54] = system: KM12 colon
[55] = system: MCF7 breast
[56] = system: A498 renal
[57] = system: U251 CNS
[58] = system: EKVX NSCLC

## CC(=O)N1C(OCc2ccccc2)CCN1c1ccccc1 (configuration not stated)
[1]
  TGI: > 10 µM
[2]
  TGI: > 10 µM
[3]
  TGI: > 10 µM
[4]
  TGI: > 10 µM
[5]
  TGI: > 10 µM
[6]
  TGI: > 10 µM
[7]
  TGI: > 10 µM
[8]
  TGI: > 10 µM
[9]
  TGI: > 10 µM
[10]
  TGI: > 10 µM
[11]
  TGI: > 10 µM
[12]
  TGI: > 10 µM
[13]
  TGI: > 10 µM
[14]
  TGI: > 10 µM
[15]
  TGI: > 10 µM
[16]
  TGI: > 10 µM
[17]
  TGI: > 10 µM
[18]
  TGI: > 10 µM
[19]
  TGI: > 10 µM
[20]
  TGI: > 10 µM
[21]
  TGI: > 10 µM
[22]
  TGI: > 10 µM
[23]
  TGI: > 10 µM
[24]
  TGI: > 10 µM
[25]
  TGI: > 10 µM
[26]
  TGI: > 10 µM
[27]
  TGI: > 10 µM
[28]
  TGI: > 10 µM
[29]
  TGI: > 10 µM
[30]
  TGI: > 10 µM
[31]
  TGI: > 10 µM
[32]
  TGI: > 10 µM
[33]
  TGI: > 10 µM
[34]
  TGI: > 10 µM
[35]
  TGI: > 10 µM
[36]
  TGI: > 10 µM
[37]
  TGI: > 10 µM
[38]
  TGI: > 10 µM
[39]
  TGI: > 10 µM
[40]
  TGI: > 10 µM
[41]
  TGI: > 10 µM
[42]
  TGI: > 10 µM
[43]
  TGI: > 10 µM
[44]
  TGI: > 10 µM
[45]
  TGI: > 10 µM
[46]
  TGI: > 10 µM
[47]
  TGI: > 10 µM
[48]
  TGI: > 10 µM
[49]
  TGI: > 10 µM
[50]
  TGI: > 10 µM
[51]
  TGI: > 10 µM
[52]
  TGI: > 10 µM

## Cc1ccc(NC(=O)CC(=O)N2N=C(c3ccccc3)C(N=Nc3ccc(S(=O)(=O)CCOS(=O)(=O)O)cc3)C2=O)cc1 (configuration not stated)
[53]
  TGI: > 100 µM
[1]
  TGI: > 100 µM
[2]
  TGI: > 100 µM
[54]
  TGI: > 100 µM
[3]
  TGI: > 100 µM
[4]
  TGI: > 100 µM
[5]
  TGI: > 100 µM
[6]
  TGI: > 100 µM
[7]
  TGI: > 100 µM
[8]
  TGI: > 100 µM
[9]
  TGI: > 100 µM
[10]
  TGI: > 100 µM
[11]
  TGI: > 100 µM
[12]
  TGI: > 100 µM
[13]
  TGI: > 100 µM
[14]
  TGI: > 100 µM
[15]
  TGI: > 100 µM
[17]
  TGI: > 100 µM
[18]
  TGI: > 100 µM
[19]
  TGI: > 100 µM
[55]
  TGI: > 100 µM
[20]
  TGI: > 100 µM
[56]
  TGI: > 100 µM
[57]
  TGI: > 100 µM
[21]
  TGI: > 100 µM
[22]
  TGI: > 100 µM
[23]
  TGI: > 100 µM
[24]
  TGI: > 100 µM
[25]
  TGI: > 100 µM
[26]
  TGI: > 100 µM
[27]
  TGI: > 100 µM
[28]
  TGI: > 100 µM
[29]
  TGI: > 100 µM
[30]
  TGI: > 100 µM
[31]
  TGI: > 100 µM
[32]
  TGI: > 100 µM
[33]
  TGI: > 100 µM
[34]
  TGI: > 100 µM
[35]
  TGI: > 100 µM
[58]
  TGI: > 100 µM
[36]
  TGI: > 100 µM
[37]
  TGI: > 100 µM
[40]
  TGI: > 100 µM
[41]
  TGI: > 100 µM
[42]
  TGI: > 100 µM
[43]
  TGI: > 100 µM
[44]
  TGI: > 100 µM
[45]
  TGI: > 100 µM
[46]
  TGI: > 100 µM
[47]
  TGI: > 100 µM
[48]
  TGI: > 100 µM
[49]
  TGI: > 100 µM
[50]
  TGI: > 100 µM
[51]
  TGI: > 100 µM
[52]
  TGI: > 100 µM
